These results are taken from patent EP0539209A1, “Benzo-isoquinoline derivatives and analogs and their use in therapeutics” (THE UPJOHN COMPANY, priority 1991, dated 1993).

One test deals with dopamine D1 receptor (Homo sapiens, UniProt P21728). Kind of test: CNS Receptor Binding Assay, dopamine D1. The settings on record: PART I - TABLE I; test compounds at 1 microMolar concentration; standard SCH 23390. An excerpt: (§1) CNS Receptor Binding Assay (PART I - TABLE I): The Central Nervous System Binding Assay measures the percent inhibibition from experiments employing test compounds at 1 microMolar concentration competing with various radioligands for binding to whole brain membranes, membranes prepared from specific brain structures, or membranes prepared from cell lines expressing cloned receptors. When percent inhibition is equal to 100 the test compound binds as well as the standard compound. The standard compound for the 5-HT1A receptor is 8-OH-DPAT. The standard compound for the dopamine D1 receptor is SCH 23390.
(§2) CNS Receptor Binding Assay (PART II - TABLE I): The Central Nervous System Binding Assay measures the percent inhibition from experiments employing test compounds at 1 microMolar concentration competing with various radioligands for binding to whole brain membranes, membranes prepared from specific brain structures, or membranes prepared from cell lines expressing cloned receptors. When percent inhibition is equal to 100 the test compound binds as well as the standard compound. The standard compound for the dopamine D1 receptor is SCH 23390.

In a further test the target is T1, 5-HT1A receptor (Homo sapiens, UniProt P08908).
T1 sequence (P08908 1-422): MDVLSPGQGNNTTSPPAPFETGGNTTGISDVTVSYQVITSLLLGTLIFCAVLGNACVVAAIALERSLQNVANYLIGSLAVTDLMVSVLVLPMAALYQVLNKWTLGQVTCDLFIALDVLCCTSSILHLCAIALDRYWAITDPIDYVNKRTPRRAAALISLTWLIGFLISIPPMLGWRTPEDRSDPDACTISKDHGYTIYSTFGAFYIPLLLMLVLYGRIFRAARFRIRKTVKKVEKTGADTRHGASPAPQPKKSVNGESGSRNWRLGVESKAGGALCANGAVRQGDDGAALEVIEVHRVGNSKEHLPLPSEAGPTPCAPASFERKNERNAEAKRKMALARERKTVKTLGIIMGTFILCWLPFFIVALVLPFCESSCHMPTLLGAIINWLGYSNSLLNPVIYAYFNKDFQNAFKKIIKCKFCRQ
Kind of test: CNS Receptor Binding Assay, 5-HT1A. The settings on record: PART I - TABLE I; test compounds at 1 microMolar concentration competing with radioligand; 100 = binds as well as standard 8-OH-DPAT.
Excerpt: as §1

The next test concerns the target Dopamine - D2 (Homo sapiens, UniProt P14416). In words: CNS Receptor Binding Assay, dopamine D2. The settings on record: PART I - TABLE I; test compounds at 1 microMolar concentration.
Excerpt: as §1, §2

Chain of Dopamine - D2 (P14416 whole entry): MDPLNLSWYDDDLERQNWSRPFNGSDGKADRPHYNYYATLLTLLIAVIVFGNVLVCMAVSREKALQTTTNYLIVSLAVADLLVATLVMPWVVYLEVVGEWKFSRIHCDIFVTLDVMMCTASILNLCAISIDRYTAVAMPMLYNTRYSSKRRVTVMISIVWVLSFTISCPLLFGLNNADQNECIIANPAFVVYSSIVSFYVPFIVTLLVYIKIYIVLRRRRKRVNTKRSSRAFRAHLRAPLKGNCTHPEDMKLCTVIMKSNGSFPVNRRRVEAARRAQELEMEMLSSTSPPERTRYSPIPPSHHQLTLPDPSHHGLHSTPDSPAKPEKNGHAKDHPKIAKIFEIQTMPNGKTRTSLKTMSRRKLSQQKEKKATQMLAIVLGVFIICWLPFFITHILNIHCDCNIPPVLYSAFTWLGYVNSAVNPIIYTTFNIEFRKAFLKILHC
Chain of dopamine D1 receptor (P21728 whole entry, species assumed): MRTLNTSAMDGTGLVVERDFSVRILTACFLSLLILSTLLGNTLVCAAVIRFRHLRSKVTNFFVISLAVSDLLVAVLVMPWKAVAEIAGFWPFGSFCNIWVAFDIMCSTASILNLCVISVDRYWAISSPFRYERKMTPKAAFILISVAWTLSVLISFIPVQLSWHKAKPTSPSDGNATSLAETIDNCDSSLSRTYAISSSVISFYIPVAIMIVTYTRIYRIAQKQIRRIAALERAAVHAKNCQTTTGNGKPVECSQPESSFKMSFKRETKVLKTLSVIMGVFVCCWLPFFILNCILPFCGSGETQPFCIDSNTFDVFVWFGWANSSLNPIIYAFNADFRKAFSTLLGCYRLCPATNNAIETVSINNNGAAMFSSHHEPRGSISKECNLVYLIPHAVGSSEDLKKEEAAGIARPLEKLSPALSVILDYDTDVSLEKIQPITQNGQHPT

Consider `CCCN1CCC2Cc3cccc(C(N)=O)c3C2CC1` (single isomer, unassigned) [compound 3], for which the “Dopamine - D1 % inhibition” value at dopamine D1 receptor came out at 13%. The 5-HT1A % inhibition on 5-HT1A receptor was determined as 93%. Besides, the “Dopamine - D2 % inhibition” value at Dopamine - D2 is 45%.
As to `CCCN1CCC2Cc3cccc(C(N)=O)c3C2CC1` (single isomer, unassigned) [compound 4], the “Dopamine - D1 % inhibition” value at dopamine D1 receptor is given as 0%. In addition, at 5-HT1A receptor, the 5-HT1A % inhibition worked out at 21%. For the same molecule, the “Dopamine - D2 % inhibition” value on Dopamine - D2 turned out to be 2%.
Broadly, the inhibition is the percentage by which the read-out fell short of the control. The low end stands for a response near the control, the high end for a response far below the control. `CCCN1CCC2Cc3c(C(N)=O)cccc3C2CC1` (single isomer, unassigned) [compound 5]: the “Dopamine - D1 % inhibition” value at dopamine D1 receptor worked out at 10%. The inhibition at 1 µM at 5-HT1A receptor and at Dopamine - D2 was 24% in each case.
As to `CCCN1CCC2Cc3c(C(N)=O)cccc3C2CC1` (single isomer, unassigned) [compound 6], the “Dopamine - D1 % inhibition” value on dopamine D1 receptor was 50%. This molecule returned a 5-HT1A % inhibition on 5-HT1A receptor of 18%. For the same molecule, the “Dopamine - D2 % inhibition” value on Dopamine - D2 was determined as 31%.
For `CCCN1CCC2Cc3c(C#N)cccc3C2CC1` (single isomer, unassigned) [compound 7], in that order: 11%, 17% and 22%.
In the case of `CCCN1CCC2Cc3c(C#N)cccc3C2CC1` (single isomer, unassigned) [compound 8], the figures for the inhibition at 1 µM on dopamine D1 receptor, at 5-HT1A receptor and on Dopamine - D2 were 7%, 15% and 35%, respectively.
The corresponding values for `CCCN1CCC2Cc3c(Cl)ccc(OC)c3C2CC1` (stereo not drawn) [compound 1] are 57%, 99% and 74%.
